Reference: patent US6432959B1, “Inhibitors of farnesyl-protein transferase” (Schering Corporation, priority 1998, dated 2002)
Values joined by “and” are separate entries in the source; they are usually repeats but may differ in a detail not shown here. Equal values may be shown once.

Columns and labels:
[1] = biological target: T1, partially purified rat brain farnesyl protein transferase (FPT) (Rattus norvegicus, UniProt Q02293+Q04631); experiment: FPT IC50, in vitro enzyme assay (inhibition of Ras-CVLS farnesylation); assay type: biochemical; settings: inhibition of Ras-CVLS farnesylation by partially purified rat brain FPT; value is a range stated for a group of compounds
T1 construct: partially purified rat brain farnesyl protein transferase (FPT); from tissue; host or cells: rat brain
Experimental: 1. In vitro enzyme assays: FPT IC50 (inhibition of farnesyl protein transferase, in vitro enzyme assay) are determined by the methods disclosed in WO/10515 or WO95/10516.

Compound	IC50 [1]	melting point
Cc1ccc(CCN2CCN(C(=O)NC3CCCCC3)C(C(=O)NCCc3cncn3Cc3ccc(C#N)cc3)C2)cc1O (stereo not shown) [Example 55]	180 to 21000 pM and 180 to 1500 pM	
N#Cc1ccc(Cn2cncc2CCNC(=O)[C@H]2CN(Cc3ccccc3)CCN2C(=O)Cc2cc[n+]([O-])cc2)cc1 [Example 28P, N-[2-[1-[(4-cyanophenyl)methyl]-1H-imidazol-5-yl]ethyl]-4-(phenylmethyl)-1-(4-pyridinylacetyl)-2(R)-piperazinecarboxamide N1-oxide]	180 to 21000 pM	
N#Cc1ccc(Cn2cncc2CCNC(=O)[C@H]2CN(CC3CCCCC3)CCN2C(=O)NC2CCCCC2)cc1 [Example 13]	180 to 21000 pM	
CCCC(=O)N1CCN(Cc2ccccc2)C[C@@H]1C(=O)NCCc1cncn1Cc1ccc(C#N)cc1 [Example 28F, N-[2-[1-[(4-cyanophenyl)methyl]-1H-imidazol-5-yl]ethyl]-1-(1-oxobutyl)-4-phenyl(methyl)-2(R)-piperazinedicarboxamide]	180 to 21000 pM	
N#Cc1ccc(Cn2cncc2CCNC(=O)[C@H]2CN(Cc3ccccc3Cl)CCN2C(=O)NC2CCCCC2)cc1 [Example 28]	180 to 21000 pM	
N#Cc1ccc(Cn2cncc2CCNC(=O)[C@H]2CN(Cc3ccccc3)CCN2S(=O)(=O)Cc2ccccc2)cc1 [Example 28M, N-[2-[1-[(4-cyanophenyl)methyl]-1H-imidazol-5-yl]ethyl]-1-[(phenylmethyl)sulfonyl]-4-(phenylmethyl)-2(R)-piperazinecarboxamide]	180 to 21000 pM	
COc1cccc(CN2CCN(C(=O)NC3CCCCC3)[C@@H](C(=O)NCCc3cncn3Cc3ccc(C#N)cc3)C2)c1 [Example 26]	180 to 21000 pM	
N#Cc1ccc(Cn2cncc2CCNC(=O)[C@H]2CN(Cc3ccc(C(F)(F)F)cc3)CCN2C(=O)NC2CCCCC2)cc1 [Example 15]	180 to 21000 pM	
N#Cc1ccc(Cn2cncc2CCNC(=O)C2CN(C(=O)c3ccncc3)CCN2C(=O)NC2CCCCC2)cc1 (stereo not shown) [Example 42]	180 to 21000 pM	
N#Cc1ccc(Cn2cncc2CCNC(=O)[C@H]2CN(Cc3ccccc3)CCN2C(=O)Cc2ccccc2)cc1 [Example 28I, N-[2-[1-[(4-cyanophenyl)methyl]-1H-imidazol-5-yl]ethyl]-1-phenylacetyl-4-(phenylmethyl)-2(R)-piperazinedicarboxamide]	180 to 21000 pM	85.6 to 96.7 °C
CS(=O)(=O)N1CCN(CCc2ccccc2)CC1C(=O)NCCc1cncn1Cc1ccc(C#N)cc1 (stereo not shown) [Example 31]	180 to 21000 pM	
CCC(=O)N1CCN(Cc2ccccc2)C[C@@H]1C(=O)NCCc1cncn1Cc1ccc(C#N)cc1 [Example 28E, N-[2-[1-[(4-cyanophenyl)methyl]-1H-imidazol-5-yl]ethyl]-1-(1-oxopropyl)-4-phenyl(methyl)-2(R)-piperazinedicarboxamide]	180 to 21000 pM	
COc1ccccc1CN1CCN(C(=O)NC2CCCCC2)[C@@H](C(=O)NCCc2cncn2Cc2ccc(C#N)cc2)C1 [Example 27]	180 to 21000 pM	
N#Cc1ccc(Cn2cncc2CCNC(=O)[C@H]2CN(Cc3nccs3)CCN2C(=O)NC2CCCCC2)cc1 [Example 8]	180 to 21000 pM	
N#Cc1ccc(Cn2cncc2CCNC(=O)C2CN(CCC3CCCCC3)CCN2C(=O)NC2CCCCC2)cc1 (stereo not shown) [Example 32]	180 to 21000 pM	
O=C(NCCc1cncn1Cc1ccc(C(F)(F)F)cc1)C1CN(CCc2cccc(Cl)c2)CCN1C(=O)NC1CCCCC1 (stereo not shown) [Example 53]	180 to 21000 pM	
CC(C)(C)NC(=O)N1CCN(Cc2ccccc2)C[C@@H]1C(=O)N(CCCn1ccnc1)Cc1ccccc1 [Example 28T, N1-(1,1-dimethylethyl)-N2-[3-(1H-imidazol-1-yl)propyl]-N2,4-bis(phenylmethyl)-1,2(R)-piperazinedicarboxamide]	180 to 21000 pM	57.8 °C
N#Cc1ccc(Cn2cncc2CCNC(=O)[C@H]2CN(Cc3ccc(Cl)cc3Cl)CCN2C(=O)NC2CCCCC2)cc1 [Example 24]	180 to 21000 pM	
N#Cc1ccc(Cn2cncc2CCNC(=O)[C@H]2CN(Cc3cccc4ccccc34)CCN2C(=O)NC2CCCCC2)cc1 [Example 21]	180 to 21000 pM	
O=C(NCCc1cncn1Cc1ccccc1)[C@H]1CN(CCC2CCCCC2)CCN1C(=O)NC1CCCCC1 [Example 64]	180 to 21000 pM	
CC(C)(C)OC(=O)N1CCN(C(=O)OCc2ccccc2)[C@@H](C(=O)NCCCn2ccnc2C(N)=O)C1 [Example 28Z]		71 to 75 °C
Cn1cncc1CCNC(=O)C1CN(CCC2CCCCC2)CCN1C(=O)NC1CCCCC1 (stereo not shown) [Example 61]	180 to 21000 pM	
N#Cc1ccc(Cn2cncc2CCNC(=O)[C@H]2CN(Cc3ccccc3)CCN2C(=O)c2ccccc2)cc1 [Example 28G, 1-benzoyl-N-[2-[1-[(4-cyanophenyl)methyl]-1H-imidazol-5-yl]ethyl]-4-phenylmethyl-2(R)-piperazinedicarboxamide]	180 to 21000 pM	115.3 to 170.3 °C
O=C(NCCc1cncn1Cc1ccc(Cl)cc1)[C@H]1CN(Cc2ccccc2)CCN1C(=O)NC1CCCCC1 [Example 28C, N4-phenylmethyl-N2-[2-[1-[(4-chlorophenyl)methyl]-1H-imidazol-5-yl]ethyl]-N1-cyclohexyl-1,2(R)-piperazinedicarboxamide]	180 to 21000 pM	116.2 °C

Compound	IC50 [1]	melting point
N#Cc1ccc(Cn2cncc2CCNC(=O)[C@H]2CN(Cc3ccccc3)CCN2C(=O)CC2CCN(C(N)=O)CC2)cc1 [Example 28Q, 1-[[1-(aminocarbonyl)-4-piperidinyl]acetyl]-N-[2-[1-[(4-cyanophenyl)methyl]-1H-imidazol-5-yl]ethyl]-4-(phenylmethyl)-2(R)-piperazinecarboxamide]	180 to 21000 pM	118.5 °C
CCCCCN1CCN(S(C)(=O)=O)C(C(=O)NCCc2cncn2Cc2ccc(C#N)cc2)C1 (stereo not shown) [Example 34]	180 to 21000 pM	
N#Cc1ccc(Cn2cncc2CCNC(=O)[C@H]2CN(Cc3cccc(Cl)c3)CCN2C(=O)NC2CCCCC2)cc1 [Example 25]	180 to 21000 pM	
N#Cc1ccc(Cn2cncc2CCNC(=O)C2CN(CCc3ccccc3)CCN2C(=O)NC2CCCCC2)cc1 (stereo not shown) [Example 29]	180 to 21000 pM	
CCCCNC(=O)N1CCN(C(=O)NC2CCCCC2)C(C(=O)NCCc2cncn2Cc2ccc(C#N)cc2)C1 (stereo not shown) [Example 47]	180 to 21000 pM	
N#Cc1ccc(CN2CCN(C(=O)NC3CCCCC3)[C@@H](C(=O)NCCc3cncn3Cc3ccc(C#N)cc3)C2)cc1 [Example 10]	180 to 21000 pM	
Cc1ccc(CN2CCN(C(=O)NC3CCCCC3)[C@@H](C(=O)NCCc3cncn3Cc3ccc(C#N)cc3)C2)cc1 [Example 22]	180 to 21000 pM	
CC(C)(C)OC(=O)N1CCN(C(=O)NC2CCCCC2)[C@@H](C(=O)NCCc2cncn2Cc2ccc(F)cc2)C1 [Example 2]		72 °C (dec.)
N#Cc1ccc(Cn2cncc2CCNC(=O)[C@H]2CN(Cc3ccccc3C#N)CCN2C(=O)NC2CCCCC2)cc1 [Example 11]	180 to 21000 pM	
O=C(NCCc1cncn1CCc1ccccc1)[C@H]1CN(Cc2ccccc2)CCN1C(=O)NC1CCCCC1 [Example 28D, N4-phenylmethyl-N2-[2-[1-(phenylethyl)-1H-imidazol-5-yl]ethyl]-N1-cyclohexyl-1,2(R)-piperazinedicarboxamide]		64.4 °C
O=C(NCCc1cncn1Cc1ccc(Cl)c(Cl)c1)C1CN(CCC2CCCCC2)CCN1C(=O)NC1CCCCC1 (stereo not shown) [Example 36]	180 to 21000 pM	
N#Cc1ccc(Cn2cncc2CCNC(=O)[C@H]2CN(Cc3ccc(Cl)cc3)CCN2C(=O)NC2CCCCC2)cc1 [Example 16]	180 to 21000 pM	
CCS(=O)(=O)N1CCN(Cc2ccccc2)C[C@@H]1C(=O)NCCc1cncn1Cc1ccc(C#N)cc1 [Example 28K, N-[2-[1-[(4-cyanophenyl)methyl]-1H-imidazol-5-yl]ethyl]-1-(ethylsulfonyl)-4-(phenylmethyl)-2(R)-piperazinecarboxamide]		97.3 to 150.2 °C
CC(C)(C)CCN1CCN(C(=O)NC2CCCCC2)C(C(=O)NCCc2cncn2Cc2ccc(Cl)c(Cl)c2)C1 (stereo not shown) [Example 56]	180 to 21000 pM	
CC(=O)Nc1ccc(CN2CCN(C(=O)NC3CCCCC3)[C@@H](C(=O)NCCc3cncn3Cc3ccc(C#N)cc3)C2)cc1 [Example 20]	180 to 21000 pM	
N#Cc1ccc(Cn2cncc2CCNC(=O)[C@H]2CN(Cc3ccc(F)cc3)CCN2C(=O)NC2CCCCC2)cc1 [Example 14]	180 to 21000 pM	
O=C([C@H]1CN(Cc2ccccc2)CCN1C(=O)NC1CCCCC1)N(CCCn1ccnc1)Cc1ccccc1 [Example 28S, N1-cyclohexyl-N2-[3-(1H-imidazol-1-yl)propyl]-N2,4-bis(phenylmethyl)-1,2(R)-piperazinedicarboxamide]	180 to 21000 pM	89.1 °C
N#Cc1ccc(Cn2cncc2CCNC(=O)[C@H]2CN(Cc3ccc(O)cc3)CCN2C(=O)NC2CCCCC2)cc1 [Example 23]	180 to 21000 pM	
N#Cc1ccc(Cn2cncc2CCNC(=O)[C@H]2CN(S(=O)(=O)c3ccccc3)CCN2C(=O)NC2CCCCC2)cc1 [Example 28R, N2-[2-[1-[(4-Cyanophenyl)methyl]-1H-imidazol-5-yl]ethyl]-N1-cyclohexyl-4-(phenylsulfonyl)-1,2(R)-piperazinedicarboxamide]	180 to 21000 pM	143.6 °C
N#Cc1ccc(Cn2cncc2CCNC(=O)C2CN(CCc3cccc(Cl)c3)CCN2C(=O)NC2CCCCC2)cc1 (stereo not shown) [Example 54]	180 to 21000 pM and 180 to 1500 pM	
N#Cc1ccc(Cn2cncc2CCNC(=O)[C@H]2CN(Cc3ccc(Br)cc3)CCN2C(=O)NC2CCCCC2)cc1 [Example 17]	180 to 21000 pM	
COc1ccc(CN2CCN(C(=O)NC3CCCCC3)[C@@H](C(=O)NCCc3cncn3Cc3ccc(C#N)cc3)C2)cc1 [Example 12]	180 to 21000 pM	
COc1cccc(CN2CCN(C(=O)NC3CCCCC3)C(C(=O)NCCc3cncn3Cc3ccc(Cl)c(Cl)c3)C2)c1 (stereo not shown) [Example 58]	180 to 21000 pM	
CC(C)(C)CCN1CCN(C(=O)NC2CCCCC2)[C@@H](C(=O)NCCc2cncn2Cc2ccc(C#N)cc2)C1 [Example 9]	180 to 21000 pM	
